Reference: patent publication US11566007B2, “Ras inhibitors” (Revolution Medicines, Inc., priority 2019, dated 2023)
Read-outs that look alike come from different tables or passages of the source.

Assays:
[1] = system: NCI-H358 (K-Ras G12C); test: CellTiter-Glo cell viability assay, NCI-H358; format: cell-based, human; conditions: NCI-H358, 5-day treatment, class symbols, read-out: Additional H358 Cell Viability assay data (K-Ras G12C, IC50)
Protocol: Note—The following protocol describes a procedure for monitoring cell viability of K-Ras mutant cancer cell lines in response to a compound of the invention. Other RAS isoforms may be employed, though the number of cells to be seeded will vary based on cell line used.
Test compounds (132.5 nL) were directly dispensed into the assay plates containing cells. […] On day 5, assay plates and their contents were equilibrated to room temperature for approximately 30 minutes. […] Luminescence was measured using the PerkinElmer Enspire. Data were normalized by the following: (Sample signal/Avg. DMSO)*100. The data were fit using a four-parameter logistic fit.

[2] = system: NCI-H358 cells (K-Ras G12C); test: Potency assay: pERK in NCI-H358 cells; format: cell-based, human; conditions: H358 KRAS G12C, read-out: pERK EC50
Protocol: The purpose of this assay is to measure the ability of test compounds to inhibit K-Ras in cells. […] This procedure measures a decrease in cellular pERK in response to test compounds.
NCI-H358 cells were grown and maintained using media and procedures recommended by the ATCC. On the day prior to compound addition, cells were plated in 384-well cell culture plates (40 μl/well) and grown overnight in a 37° C., 5% CO2 incubator. Test compounds were prepared in 10, 3-fold dilutions in DMSO, with a high concentration of 10 mM. On the day of assay, 40 nL of test compound was added to each well of cell culture plate using an Echo550 liquid handler (LabCyte®). Concentrations of test compound were tested in duplicate. After compound addition, cells were incubated 4 hours at 37° C., 5% CO2. Following incubation, culture medium was removed and cells were washed once with phosphate buffered saline.
In some experiments, cellular pERK level was determined using the AlphaLISA SureFire Ultra p-ERK1/2 Assay Kit (PerkinElmer). Cells were lysed in 25 μL lysis buffer, with shaking at 600 RPM at room temperature. […] After a 2-hour incubation in the dark, 5 μL donor mix was added, plate was sealed, and incubated 2 hours at room temperature. Signal was read on an Envision plate reader (PerkinElmer) using standard AlphaLISA settings. Analysis of raw data was carried out in Excel (Microsoft) and Prism (GraphPad). Signal was plotted vs. the decadal logarithm of compound concentration, and IC50 was determined by fitting a 4-parameter sigmoidal concentration response model.
In other experiments, cellular pERK was determined by In-Cell Western. […] Fixed cells were washed 4 times for 5 minutes with TBS containing 0.1% Triton X-100 (TBST) and then blocked with 100 μL Odyssey blocking buffer (LI-COR) for 60 minutes at room temperature. […] Cells were washed 4 times for 5 minutes with TBST. Secondary antibody (IR-800CW rabbit, LI-COR, diluted 1:800) and DNA stain DRAQS (LI-COR, diluted 1:2000) were added and incubated 1-2 hours at room temperature. Cells were washed 4 times for 5 minutes with TBST. Plates were scanned on a Li-COR Odyssey CLx Imager. Analysis of raw data was carried out in Excel (Microsoft) and Prism (Graph Pad). Signal was plotted vs. the decadal logarithm of compound concentration, and IC50 was determined by fitting a 4-parameter sigmoidal concentration response model.

| EC50 [2] | IC50 ([1]; Homo sapiens, NCI-H358, 120 h) | EC50 ([2]; Homo sapiens, NCI-H358) | Compound | IC50 [1] |
| --- | --- | --- | --- | --- |
| < 5 µM |  |  | CC#CC(=O)N1CC[C@H](C(=O)N(C)[C@@H](C(=O)N[C@H]2Cc3cc(O)cc(c3)-c3ccc4c(c3)c(c(-c3cccnc3[C@H](C)OC)n4CC)CC(C)(C)COC(=O)[C@@H]3CCCN(N3)C2=O)C(C)C)C1 (atropisomer, axis not shown) [Example A199] | 100 to 1000 nM |
|  | 100 to 1000 nM | < 5 µM | C=CC(=O)N1CC[C@H](C(=O)N(C)[C@H](C(=O)N[C@H]2Cc3cc(O)cc(c3)-c3ccc4c(c3)c(c(-c3ccc(CN5CC[C@@H](O)C5)cc3)n4CC)CC(C)(C)COC(=O)[C@@H]3CCCN(N3)C2=O)C(C)C)C1 [Example A1] |  |
|  | > 1000 nM | < 5 µM | C=CC(=O)N1CC[C@H](C(=O)N(C)[C@H](C(=O)N[C@H]2Cc3cc(N)cc(c3)-c3ccc4c(c3)c(c(-c3ccccc3CCOC)n4CC)CC(C)(C)COC(=O)[C@@H]3CCCN(N3)C2=O)C(C)C)C1 [Example A2, (2S)-N-[(8S,14S)-4-amino-22-ethyl-21-[2-(2-methoxyethyl)phenyl]-18,18-dimethyl-9,15-dioxo-16-oxa-10,22,28-triazapentacyclo[18.5.2.1^2,^6.1^10,^14.0^23,^27]nonacosa-1(26),2,4,6(29),20,23(27),24-heptaen-8-yl]-3-methyl-2-{N-methyl-1-[(3S)-1-(prop-2-enoyl)pyrrolidin-3-yl]formamido}butanamide] |  |
|  | 100 to 1000 nM | < 5 µM | C=CC(=O)N1CC[C@H](C(=O)N(C)[C@H](C(=O)N[C@H]2Cc3cc(O)cc(c3)-c3ccc4c(c3)c(c(-c3ccc(CN(C)C)cc3)n4CC)CC(C)(C)COC(=O)[C@@H]3CCCN(N3)C2=O)C(C)C)C1 [Example A3] |  |
|  | 10 to 100 nM | < 5 µM | C=CC(=O)N1CC[C@H](C(=O)N(C)[C@H](C(=O)N[C@H]2Cc3cc(O)cc(c3)-c3ccc4c(c3)c(c(-c3ccccc3CN(C)C)n4CC)CC(C)(C)COC(=O)[C@@H]3CCCN(N3)C2=O)C(C)C)C1 [Example A5] |  |
|  | 100 to 1000 nM | < 5 µM | C=CC(=O)N1CC[C@H](C(=O)N(C)[C@H](C(=O)N[C@H]2Cc3cc(O)cc(c3)-c3ccc4c(c3)c(c(-c3ccccc3CCOC)n4CC)CC(C)(C)COC(=O)[C@@H]3CCCN(N3)C2=O)C2CCOCC2)C1 [Example A6] |  |
|  | 100 to 1000 nM | < 5 µM | C=CC(=O)N1CC[C@H](C(=O)N(C)[C@H](C(=O)N[C@H]2Cc3cc(OC(=O)CN)cc(c3)-c3ccc4c(c3)c(c(-c3ccccc3CCOC)n4CC)CC(C)(C)COC(=O)[C@@H]3CCCN(N3)C2=O)C(C)C)C1 [Example A8] |  |
|  | 100 to 1000 nM | < 5 µM | C=CC(=O)N1CC[C@H](C(=O)N(C)[C@H](C(=O)N[C@H]2Cc3cc(cc(O)c3F)-c3ccc4c(c3)c(c(-c3ccccc3CCOC)n4CC)CC(C)(C)COC(=O)[C@@H]3CCCN(N3)C2=O)C(C)C)C1 [Example A9] |  |
|  | 10 to 100 nM | < 5 µM | C=CC(=O)N1CC[C@H](C(=O)N(C)[C@H](C(=O)N[C@H]2Cc3cc(O)cc(c3)-c3ccc4c(c3)c(c(-c3ccc(CN5CCCC5)cc3)n4CC)CC(C)(C)COC(=O)[C@@H]3CCCN(N3)C2=O)C(C)C)C1 [Example A10] |  |
|  | 100 to 1000 nM | < 5 µM | C=CC(=O)N1CCCN(C(=O)N(C)[C@H](C(=O)N[C@H]2Cc3cc(O)cc(c3)-c3ccc4c(c3)c(c(-c3ccccc3CCOC)n4CC)CC(C)(C)COC(=O)[C@@H]3CCCN(N3)C2=O)C(C)C)CC1 [Example A13] |  |
|  | 100 to 1000 nM | < 5 µM | C=CC(=O)N1CCC(C(=O)N(C)[C@H](C(=O)N[C@H]2Cc3cc(O)cc(c3)-c3ccc4c(c3)c(c(-c3ccccc3CCOC)n4CC)CC(C)(C)COC(=O)[C@@H]3CCCN(N3)C2=O)C(C)C)CC1 [Example A14] |  |
|  | 10 to 100 nM | < 5 µM | C=CC(=O)N1CC[C@H](C(=O)N(C)[C@H](C(=O)N[C@H]2Cc3cc(O)cc(c3)-c3ccc4c(c3)c(c(-c3cccnc3COC)n4CC)CC(C)(C)COC(=O)[C@@H]3CCCN(N3)C2=O)C(C)C)C1 [Example A16] |  |
|  | 100 to 1000 nM | < 5 µM | C=CC(=O)N1CCN(C(=O)N(C)[C@H](C(=O)N[C@H]2Cc3cc(O)cc(c3)-c3ccc4c(c3)c(c(-c3ccccc3CCOC)n4CC)CC(C)(C)COC(=O)[C@@H]3CCCN(N3)C2=O)C(C)C)CC1 [Example A18] |  |
|  | 100 to 1000 nM | < 5 µM | CCn1c(-c2ccccc2CCOC)c2c3cc(ccc31)-c1cc(O)cc(c1)C[C@H](NC(=O)[C@H](C(C)C)N(C)C(=O)C1CCN(C(=O)/C=C/CN(C)C)CC1)C(=O)N1CCC[C@H](N1)C(=O)OCC(C)(C)C2 [Example A19] |  |
|  | 10 to 100 nM | < 5 µM | C=CC(=O)N1CCC(F)(C(=O)N(C)[C@H](C(=O)N[C@H]2Cc3cc(O)cc(c3)-c3ccc4c(c3)c(c(-c3ccccc3CN(C)C)n4CC)CC(C)(C)COC(=O)[C@@H]3CCCN(N3)C2=O)C(C)C)CC1 [Example A20] |  |
|  | > 1000 nM | < 5 µM | C=CC(=O)N1CC[C@H](C(=O)N(C)[C@H](C(=O)N[C@H]2Cc3cc(O)cc(c3)-c3ccc4c(c3)c(c(-c3ccc(CC(=O)O)cc3)n4CC)CC(C)(C)COC(=O)[C@@H]3CCCN(N3)C2=O)C(C)C)C1 [Example A21] |  |
|  | 10 to 100 nM | < 5 µM | C=CC(=O)N1CC[C@H](C(=O)N(C)[C@H](C(=O)N[C@H]2Cc3cc(O)cc(c3)-c3ccc4c(c3)c(c(-c3ccccc3[C@H](C)OC)n4CC)CC(C)(C)COC(=O)[C@@H]3CCCN(N3)C2=O)C(C)C)C1 [Example A22] |  |
|  | 100 to 1000 nM | < 5 µM | C=CC(=O)N1CC[C@H](C(=O)N(C)[C@H](C(=O)N[C@H]2Cc3cc(O)cc(c3)-c3ccc4c(c3)c(c(-c3ccccc3N3CCOCC3)n4CC)CC(C)(C)COC(=O)[C@@H]3CCCN(N3)C2=O)C(C)C)C1 [Example A26] |  |

| Compound | EC50 [2] | IC50 ([1]; Homo sapiens, NCI-H358, 120 h) | EC50 ([2]; Homo sapiens, NCI-H358) | IC50 [1] |
| --- | --- | --- | --- | --- |
| C=CC(=O)N1CC[C@H](C(=O)N(C)[C@H](C(=O)N[C@H]2Cc3cc(O)cc(c3)-c3ccc4c(c3)c(c(-c3cccnc3[C@H](C)OC)n4CC)CC(C)(C)COC(=O)[C@@H]3CCCN(N3)C2=O)C(C)C)C1 (atropisomer, axis not shown; (M)) [Example A75, (2S)-N-[(8S,14S,20M)-22-ethyl-4-hydroxy-21-{2-[(1S)-1-methoxyethyl]pyridin-3-yl}-18,18-dimethyl-9,15-dioxo-16-oxa-10,22,28-triazapentacyclo[18.5.2.1^2,^6.1^10,^14.0^23,^27]nonacosa-1(26),2,4,6(29),20,23(27),24-heptaen-8-yl]-3-methyl-2-{N-methyl-1-[(3S)-1-(prop-2-enoyl)pyrrolidin-3-yl]formamido}butanamide] |  | 10 to 100 nM | < 5 µM | < 10 nM |
| C=CC(=O)N1CC[C@H](C(=O)N(C)[C@H](C(=O)N[C@H]2Cc3cc(OC(=O)CCN4CCN(C)CC4)cc(c3)-c3ccc4c(c3)c(c(-c3ccccc3CCOC)n4CC)CC(C)(C)COC(=O)[C@@H]3CCCN(N3)C2=O)C(C)C)C1 [Example A7] |  | 100 to 1000 nM | < 5 µM |  |
| C=CC(=O)N1CCC(F)(C(=O)N(C)[C@H](C(=O)N[C@H]2Cc3cc(O)cc(c3)-c3ccc4c(c3)c(c(-c3ccccc3CCOC)n4CC)CC(C)(C)COC(=O)[C@@H]3CCCN(N3)C2=O)C(C)C)CC1 [Example A11] |  | 100 to 1000 nM | < 5 µM |  |
| C=CC(=O)N1CC[C@H](C(=O)N(C)[C@H](C(=O)N[C@H]2Cc3cc(O)cc(c3)-c3ccc4c(c3)c(c(-c3ccccc3OC)n4CC)CC(C)(C)COC(=O)[C@@H]3CCCN(N3)C2=O)C(C)C)C1 [Example A17] |  | 100 to 1000 nM | < 5 µM |  |
| C=CC(=O)N1CC[C@H](C(=O)N(C)[C@H](C(=O)N[C@H]2Cc3cc(O)cc(c3)-c3ccc4c(c3)c(c(-c3ccccc3)n4CC)CC(C)(C)COC(=O)[C@@H]3CCCN(N3)C2=O)C(C)C)C1 [Example A23] |  | 100 to 1000 nM | < 5 µM |  |
| C=CC(=O)N1CC[C@H](C(=O)N(C)[C@H](C(=O)N[C@H]2Cc3cc(O)cc(c3)-c3ccc4c(c3)c(c(-c3c(F)cccc3CCOC)n4CC)CC(C)(C)COC(=O)[C@@H]3CCCN(N3)C2=O)C(C)C)C1 [Example A25] |  | 100 to 1000 nM | < 5 µM |  |
